Experimental data published in patent US20220162163A1, “ALANINE-BASED MODULATORS OF PROTEOLYSIS AND ASSOCIATED METHODS OF USE” (Arvinas Operations, Inc., priority 2015, published 2022).

Columns and labels:
Format in all cases: cell-based
EZH2 = target: T1, EZH2 (Homo sapiens, UniProt Q15910); assay: Cellular assay of EZH2 degradation (MDA-MB-231 cells, Western blot); details: EZH2, MDA-MB-231 cells, PROTAC concentration 3 μM, relative to DMSO control
T1 construct: endogenous in cells; host or cells: MDA-MB-231
Method: Protocol of the Cellular Assay of EZH2 Degradation (MDA-MB-231 Cells, Western Blot).
MDA-MB-231 cells were plated at 10,000 cells per well in 6 well plates, 2 ml/well in DMEM+10% Fetal Bovine Serum. Cells were allowed to grow for 3 days at 37 degrees C. Cells were dosed with PROTACs. On day 3 and day 7 after dosing, cells were harvested and lysed with RIPA buffer. Lysed cells were transferred to eppendorf tubes, and each lysate was sonicated and then spinned in microfuge for 15 minutes at 20,000×g at 4 degrees C. Supernatant was transferred to a clean tube, and protein concentration was quantitated using the Pierce BCA Protein Assay kit (cat #23225). Lysate concentrations were adjusted to 1 microgram/microliter in lysis buffer. For Western blot samples were loaded in 4×LDS buffer, 10 microliters/lane, onto Noxex NuPage 4-12% Bis-Tris Midi Gel […]×26 well.
Gels were run on BioRad power source Model 1000/500, at 200V constant voltage for 1 hour. Gels were then transferred onto a nitrocellulose membrane using an iBlot2 transfer apparatus from Life Technologies. Transfers were done on Program 0 and blocked for 1 hour in TBS-T (Tris Buffered Saline with 0.05% Tween 20)+5% BSA (Bovine Serum Albumin). Block solution was decanted, and the primary antibody solutions were added (EZH2-Cell Signaling #5246S; tri-methyl-Histone H3-Cell Signaling #9733S; Histone H3-Cell Signaling #4499; all diluted 1:1000 in 20 ml TBS-T+5% BSA). The preparation was placed in cold room (4 degrees C.) overnight on rocker platform, after which the antibody solution was decanted. The preparation was washed 3 times in TBS-T for 10 minutes each, and anti-rabbit secondary antibody (Cell Signaling #7074S), diluted 1:20,000 in TBS-T+5% BSA, was added. This was followed by incubating for 1 hour at room temperature with gentle rocking and washing 3 times in TBS-T. To develop blots SuperSignal™ West Femto Maximum Sensitivity Substrate (Life Technologies Catalog number: 34095) solution was applied for 5 minutes. Blots were imaged on BioRad ChemiDoc Imager using the “Chemi Hi Sensitivity” protocol. Bands were quantitated using Image Lab software v 5.2.1.

JNK1 = target: T2, JNK1 (Homo sapiens, UniProt P45983); assay: Cellular assay of JNK degradation (A549 cells, Western blot), JNK1; details: for JNK1 degradation range: PROTAC concentration 1 μM, relative to DMSO control; for DC50: read-out: JNK1 DC50 range
T2 construct: A549 lung adenocarcinoma cells were purchased from ATCC and cultured in RPMI1640 Medium; endogenous in cells; host or cells: A549
Method: (§1) Protocol of the cellular assay of JNK degradation (A549 cells, Western blot). A549 lung adenocarcinoma cells were purchased from ATCC and cultured in RPMI1640 Medium (Gibco) supplemented with 10% Fetal Bovine Serum (Gibco). […] Cells were stimulated with PMA (Phorbol 12-myristate 13-acetate, Sigma) for 1 hour before harvesting. Cells were lysed in Cell Signaling lysis buffer supplemented with protease inhibitors (Thermo). The lysates were centrifuged at 20,000×g for 15 minutes to clarify, and protein concentration was determined by BCA (Pierce). Equal amounts of protein (5 micrograms) were separated by SDS-PAGE and transferred onto nitrocellulose membranes. The mermbranes were probed with antibodies against SAPK/JNK (Cell Signaling #9252), phospho-c-Jun (Cell Signaling #3270), MDM2 (Sigma M4308) and p53 (Cell Signaling #2527). HRP-conjugated anti-rabbit and anti-mouse secondary antibodies were from Cell Signaling. The bands were visualized with SuperSignal West Femto Substrate (Thermo). Quantitation was done using Image Lab Software v5.2.1.

JNK2 = target: T3, JNK2 (Homo sapiens, UniProt P45984); assay: Cellular assay of JNK degradation (A549 cells, Western blot), JNK2; details: for JNK2 degradation range: PROTAC concentration 1 μM, relative to DMSO control; for DC50: read-out: JNK2 DC50 range
T3 construct: A549 lung adenocarcinoma cells were purchased from ATCC and cultured in RPMI1640 Medium; endogenous in cells; host or cells: A549
Method: as §1

T2 sequence (P45983 whole entry): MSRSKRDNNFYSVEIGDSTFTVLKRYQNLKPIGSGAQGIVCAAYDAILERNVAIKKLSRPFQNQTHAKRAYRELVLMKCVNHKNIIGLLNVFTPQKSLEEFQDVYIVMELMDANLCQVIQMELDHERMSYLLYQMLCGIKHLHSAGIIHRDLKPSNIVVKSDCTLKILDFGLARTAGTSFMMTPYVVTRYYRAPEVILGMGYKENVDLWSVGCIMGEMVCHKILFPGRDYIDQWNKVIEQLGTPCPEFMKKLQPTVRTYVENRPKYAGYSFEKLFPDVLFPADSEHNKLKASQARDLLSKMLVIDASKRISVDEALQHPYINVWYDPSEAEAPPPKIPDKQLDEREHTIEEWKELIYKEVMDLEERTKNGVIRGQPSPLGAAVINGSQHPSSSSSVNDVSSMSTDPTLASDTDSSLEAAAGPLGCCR
T1 sequence (Q15910 whole entry): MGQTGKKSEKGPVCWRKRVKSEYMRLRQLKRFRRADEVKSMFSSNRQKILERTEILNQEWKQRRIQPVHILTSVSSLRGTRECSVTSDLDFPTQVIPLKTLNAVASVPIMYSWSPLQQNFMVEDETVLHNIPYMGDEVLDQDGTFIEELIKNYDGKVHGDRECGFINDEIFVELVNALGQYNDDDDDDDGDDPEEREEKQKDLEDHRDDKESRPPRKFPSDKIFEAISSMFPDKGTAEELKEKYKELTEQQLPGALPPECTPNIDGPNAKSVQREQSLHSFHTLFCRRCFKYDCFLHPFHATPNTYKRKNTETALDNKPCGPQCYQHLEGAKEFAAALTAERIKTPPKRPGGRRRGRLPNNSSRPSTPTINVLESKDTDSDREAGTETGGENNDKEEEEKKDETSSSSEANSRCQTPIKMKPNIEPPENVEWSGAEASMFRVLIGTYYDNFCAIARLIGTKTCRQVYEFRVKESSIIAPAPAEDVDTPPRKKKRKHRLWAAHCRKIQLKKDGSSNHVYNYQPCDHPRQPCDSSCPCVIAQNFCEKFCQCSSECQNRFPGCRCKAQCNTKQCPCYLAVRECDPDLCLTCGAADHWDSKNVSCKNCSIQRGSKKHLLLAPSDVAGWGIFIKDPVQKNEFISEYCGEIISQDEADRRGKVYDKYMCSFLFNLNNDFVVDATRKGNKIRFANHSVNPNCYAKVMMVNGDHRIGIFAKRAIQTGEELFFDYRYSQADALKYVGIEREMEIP
T1 sequence (O75530 whole entry partner): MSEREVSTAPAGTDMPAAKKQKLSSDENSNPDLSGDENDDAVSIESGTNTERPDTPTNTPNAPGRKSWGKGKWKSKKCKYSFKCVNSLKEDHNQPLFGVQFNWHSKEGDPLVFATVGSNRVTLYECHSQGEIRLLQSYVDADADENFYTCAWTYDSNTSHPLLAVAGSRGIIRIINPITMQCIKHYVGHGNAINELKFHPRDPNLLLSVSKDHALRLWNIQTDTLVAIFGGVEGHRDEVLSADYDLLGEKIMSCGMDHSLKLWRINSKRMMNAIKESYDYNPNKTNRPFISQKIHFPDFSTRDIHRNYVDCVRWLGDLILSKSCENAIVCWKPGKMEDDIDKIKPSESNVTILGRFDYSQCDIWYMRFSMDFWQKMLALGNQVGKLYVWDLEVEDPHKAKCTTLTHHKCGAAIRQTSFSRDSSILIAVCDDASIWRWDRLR
T1 sequence (Q15022 whole entry partner): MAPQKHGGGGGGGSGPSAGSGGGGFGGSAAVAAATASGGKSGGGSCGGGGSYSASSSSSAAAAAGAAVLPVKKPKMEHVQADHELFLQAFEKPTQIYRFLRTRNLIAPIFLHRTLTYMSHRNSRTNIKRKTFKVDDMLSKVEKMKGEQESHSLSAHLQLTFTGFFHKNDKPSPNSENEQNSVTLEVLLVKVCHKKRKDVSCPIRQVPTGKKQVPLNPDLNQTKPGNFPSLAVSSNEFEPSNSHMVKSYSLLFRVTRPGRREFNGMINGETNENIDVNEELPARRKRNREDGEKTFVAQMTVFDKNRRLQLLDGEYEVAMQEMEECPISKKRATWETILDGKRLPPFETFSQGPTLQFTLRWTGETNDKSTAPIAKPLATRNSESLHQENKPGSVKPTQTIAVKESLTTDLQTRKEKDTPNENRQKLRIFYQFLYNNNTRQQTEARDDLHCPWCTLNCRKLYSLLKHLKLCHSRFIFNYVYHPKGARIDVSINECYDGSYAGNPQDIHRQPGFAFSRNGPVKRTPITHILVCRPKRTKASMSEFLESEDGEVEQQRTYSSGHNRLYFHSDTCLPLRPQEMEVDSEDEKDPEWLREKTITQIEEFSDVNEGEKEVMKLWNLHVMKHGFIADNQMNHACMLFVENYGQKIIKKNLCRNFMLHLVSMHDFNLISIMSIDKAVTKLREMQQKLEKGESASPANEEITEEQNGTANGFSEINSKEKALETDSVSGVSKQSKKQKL
T3 sequence (P45984 whole entry): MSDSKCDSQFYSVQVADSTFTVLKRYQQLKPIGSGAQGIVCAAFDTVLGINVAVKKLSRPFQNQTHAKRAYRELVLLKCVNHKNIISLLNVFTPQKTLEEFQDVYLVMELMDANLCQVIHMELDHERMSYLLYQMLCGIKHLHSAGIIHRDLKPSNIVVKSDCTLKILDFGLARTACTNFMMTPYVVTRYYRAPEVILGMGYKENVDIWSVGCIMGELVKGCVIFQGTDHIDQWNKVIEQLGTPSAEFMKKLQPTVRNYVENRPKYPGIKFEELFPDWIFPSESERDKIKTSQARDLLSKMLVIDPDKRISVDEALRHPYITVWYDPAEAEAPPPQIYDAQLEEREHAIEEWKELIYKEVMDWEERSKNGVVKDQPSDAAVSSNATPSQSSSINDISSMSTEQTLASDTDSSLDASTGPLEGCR

SMILES | Target protein degradation range (EZH2) | JNK1 degradation range (JNK1) | DC50 (JNK1) [nM] | JNK2 degradation range (JNK2) | DC50 (JNK2) [nM]
CN[C@@H](C)C(=O)N[C@H](C(=O)N1CCC[C@H]1c1nc(-c2ccc(OCCOCCO[C@H]3CC[C@H](Nc4nccc(-c5cnn(Cc6ccccc6)c5N(C)C)n4)CC3)c3ccccc23)cs1)C1CCCCC1 [Example 13, (2S)—N-[(1S)-1-cyclohexyl-2-oxo-2-[(2S)-2-(4-[4-[2-(2-[[(1r,4r)-4-([4-[1-benzyl-5-(dimethylamino)-1H-pyrazol-4-yl]pyrimidin-2-yl]amino)cyclohexyl]oxy]ethoxy)ethoxy]naphthalen-1-yl]-1,3-thiazol-2-yl)pyrrolidin-1-yl]ethyl]-2-(methylamino)propanamide] |  | A (degradation more than 60%) | 1 to 100 | A (degradation more than 60%) | 100 to 1000
CCN(c1cc(-c2ccc(OCCOCCOCCOc3ccc(-c4csc([C@@H]5CCCN5C(=O)[C@@H](NC(=O)[C@H](C)NC)C5CCCCC5)n4)c4ccccc34)cc2)cc(C(=O)NCc2c(C)cc(C)[nH]c2=O)c1C)C1CCOCC1 [Example 10, 5-[4-[2-(2-[2-[(4-[2-[(2S)-1-[(2S)-2-cyclohexyl-2-[(2S)-2-(methylamino)propanamido]acetyl]pyrrolidin-2-yl]-1,3-thiazol-4-yl]naphthalen-1-yl)oxy]ethoxy]ethoxy)ethoxy]phenyl]-N-[(4,6-dimethyl-2-oxo-1,2-dihydropyridin-3-yl)methyl]-3-[ethyl(oxan-4-yl)amino]-2-methylbenzamide] | B (degradation between 30% and 60%) |  |  |  | 
CCN(c1cc(-c2ccc(OCCOCCOCCOCCOCCOc3ccc(-c4csc([C@@H]5CCCN5C(=O)[C@@H](NC(=O)[C@H](C)NC)C5CCCCC5)n4)c4ccccc34)cc2)cc(C(=O)NCc2c(C)cc(C)[nH]c2=O)c1C)C1CCOCC1 [Example 11, 5-(4-[[1-(4-[2-[(2S)-1-[(2S)-2-cyclohexyl-2-[(2S)-2-(methylamino)propanamido]acetyl]pyrrolidin-2-yl]-1,3-thiazol-4-yl]naphthalen-1-yl)-1,4,7,10,13-pentaoxapentadecan-15-yl]oxy]phenyl)-N-[(4,6-dimethyl-2-oxo-1,2-dihydropyridin-3-yl)methyl]-3-[ethyl(oxan-4-yl)amino]-2-methylbenzamide] | B (degradation between 30% and 60%) |  |  |  | 
CCN(c1cc(-c2ccc(OCCOCCOCCOc3ccc(CCN4CC[C@H]5CCN(C(=O)[C@@H](NC(=O)[C@H](C)NC)C6CCCCC6)[C@H]5C4)cc3)cc2)cc(C(=O)NCc2c(C)cc(C)[nH]c2=O)c1C)C1CCOCC1 (racemic) [Example 9, 5-[4-(2-[2-[2-(4-[2-[1-[(2S)-2-cyclohexyl-2-[(2S)-2-(methylamino)propanamido]acetyl]-octahydro-1H-pyrrolo[2,3-c]pyridin-6-yl]ethyl]phenoxy)ethoxy]ethoxy]ethoxy)phenyl]-N-[(4,6-dimethyl-2-oxo-1,2-dihydropyridin-3-yl)methyl]-3-[ethyl(oxan-4-yl)amino]-2-methylbenzamide] | C (degradation between 0% and 30%) |  |  |  | 

Other lines, results leading:

Target protein degradation range (EZH2) | JNK1 degradation range (JNK1) | DC50 (JNK1) [nM] | JNK2 degradation range (JNK2) | DC50 (JNK2) [nM] | SMILES
C (degradation between 0% and 30%) |  |  |  |  | CCN(c1cc(-c2ccc(OCCOCCOCCOCCOCCOc3ccc(CCN4CC[C@H]5CCN(C(=O)[C@@H](NC(=O)[C@H](C)NC)C6CCCCC6)[C@H]5C4)cc3)cc2)cc(C(=O)NCc2c(C)cc(C)[nH]c2=O)c1C)C1CCOCC1 (racemic) [Example 8, 5-(4-[[1-(4-[2-[1-[(2S)-2-cyclohexyl-2-[(2S)-2-(methylamino)propanamido]acetyl]-octahydro-1H-pyrrolo[2,3-c]pyridin-6-yl]ethyl]phenyl)-1,4,7,10,13-pentaoxapentadecan-15-yl]oxy]phenyl)-N-[(4,6-dimethyl-2-oxo-1,2-dihydropyridin-3-yl)methyl]-3-[ethyl(oxan-4-yl)amino]-2-methylbenzamide]
 | A (degradation more than 60%) | 100 to 1000 | A (degradation more than 60%) | 100 to 1000 | CN[C@@H](C)C(=O)N[C@H](C(=O)N1CC[C@@H]2CCN(CCc3ccc(OCCOCCOC4CCC(Nc5nccc(-c6cnn(Cc7ccccc7)c6N(C)C)n5)CC4)cc3)C[C@@H]21)C1CCCCC1 (mixture of isomers) [Example 17, (2S)—N-[(1S)-1-cyclohexyl-2-oxo-2-[6-(2-[4-[2-(2-[[(1r,4r)-4-([4-[1-benzyl-5-(dimethylamino)-1H-pyrazol-4-yl]pyrimidin-2-yl]amino)cyclohexyl]oxy]ethoxy)ethoxy]phenyl]ethyl)-octahydro-1H-pyrrolo[2,3-c]pyridin-1-yl]ethyl]-2-(methylamino)propanamide]
 | A (degradation more than 60%) | 1 to 100 | B (degradation between 30% and 60%) |  | CN[C@@H](C)C(=O)N[C@H](C(=O)N1CCC[C@H]1c1nc(-c2ccc(OCCOCCOCCOCCOCCO[C@H]3CC[C@H](Nc4nccc(-c5cnn(Cc6ccccc6)c5N(C)C)n4)CC3)c3ccccc23)cs1)C1CCCCC1 [Example 12, (2S)—N-[(1S)-1-cyclohexyl-2-oxo-2-[(2S)-2-[4-[4-([1-[(1r,4r)-4-([4-[1-benzyl-5-(dimethylamino)-1H-pyrazol-4-yl]pyrimidin-2-yl]amino)cyclohexyl]-1,4,7,10,13-pentaoxapentadecan-15-yl]oxy)naphthalen-1-yl]-1,3-thiazol-2-yl]pyrrolidin-1-yl]ethyl]-2-(methylamino)propanamide]
 | A (degradation more than 60%) | 1 to 100 | B (degradation between 30% and 60%) |  | CN[C@@H](C)C(=O)N[C@H](C(=O)N1CCC[C@H]1c1nc(-c2ccc(OCCOCCOCCOC3CCC(Nc4nccc(-c5cnn(Cc6ccccc6)c5N(C)C)n4)CC3)c3ccccc23)cs1)C1CCCCC1 (stereo partly drawn) [Example 14, (S)—N—((S)-2-((S)-2-(4-(4-(2-(2-(2-((1r,4r)-4-(4-(1-benzyl-5-(dimethylamino)-1H-pyrazol-4-yl)pyrimidin-2-ylamino)cyclohexyloxy)ethoxy)ethoxy)ethoxy)naphthalen-1-yl)thiazol-2-yl)pyrrolidin-1-yl)-1-cyclohexyl-2-oxoethyl)-2-(methylamino)propanamide]
